Laboratory results as given in patent US8183271B2, “Tetrazole derivatives and their use for the treatment of cardiovascular diseases” (Bayer Intellectual Property GmbH, priority 2005, dated 2012).

How the values were obtained:
[1] = biological target: T1, Heme-containing sGC (recombinant soluble guanylate cyclase) (Rattus norvegicus, UniProt P20595); experiment: Stimulation of recombinant soluble guanylate cyclase (sGC) in vitro, heme-containing enzyme; format: biochemical
T1 construct: made in house
T1 sequence (P20595 1-619): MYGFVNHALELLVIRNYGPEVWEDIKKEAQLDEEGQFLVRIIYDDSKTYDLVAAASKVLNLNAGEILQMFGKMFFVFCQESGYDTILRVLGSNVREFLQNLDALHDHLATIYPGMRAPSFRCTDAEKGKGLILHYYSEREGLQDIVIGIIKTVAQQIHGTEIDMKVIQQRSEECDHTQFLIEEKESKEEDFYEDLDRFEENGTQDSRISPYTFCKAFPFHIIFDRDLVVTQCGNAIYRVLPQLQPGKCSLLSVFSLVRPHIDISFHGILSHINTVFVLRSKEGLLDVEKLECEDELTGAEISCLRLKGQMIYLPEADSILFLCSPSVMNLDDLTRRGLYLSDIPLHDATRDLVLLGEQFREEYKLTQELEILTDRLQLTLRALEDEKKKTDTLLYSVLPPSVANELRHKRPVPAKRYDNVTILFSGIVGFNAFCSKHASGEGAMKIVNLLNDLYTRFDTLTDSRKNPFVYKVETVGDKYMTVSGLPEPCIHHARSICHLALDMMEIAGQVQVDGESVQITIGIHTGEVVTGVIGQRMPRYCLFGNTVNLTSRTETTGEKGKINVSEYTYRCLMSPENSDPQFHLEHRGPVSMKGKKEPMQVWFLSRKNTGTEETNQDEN
T1 sequence (P19686 1-690 partner): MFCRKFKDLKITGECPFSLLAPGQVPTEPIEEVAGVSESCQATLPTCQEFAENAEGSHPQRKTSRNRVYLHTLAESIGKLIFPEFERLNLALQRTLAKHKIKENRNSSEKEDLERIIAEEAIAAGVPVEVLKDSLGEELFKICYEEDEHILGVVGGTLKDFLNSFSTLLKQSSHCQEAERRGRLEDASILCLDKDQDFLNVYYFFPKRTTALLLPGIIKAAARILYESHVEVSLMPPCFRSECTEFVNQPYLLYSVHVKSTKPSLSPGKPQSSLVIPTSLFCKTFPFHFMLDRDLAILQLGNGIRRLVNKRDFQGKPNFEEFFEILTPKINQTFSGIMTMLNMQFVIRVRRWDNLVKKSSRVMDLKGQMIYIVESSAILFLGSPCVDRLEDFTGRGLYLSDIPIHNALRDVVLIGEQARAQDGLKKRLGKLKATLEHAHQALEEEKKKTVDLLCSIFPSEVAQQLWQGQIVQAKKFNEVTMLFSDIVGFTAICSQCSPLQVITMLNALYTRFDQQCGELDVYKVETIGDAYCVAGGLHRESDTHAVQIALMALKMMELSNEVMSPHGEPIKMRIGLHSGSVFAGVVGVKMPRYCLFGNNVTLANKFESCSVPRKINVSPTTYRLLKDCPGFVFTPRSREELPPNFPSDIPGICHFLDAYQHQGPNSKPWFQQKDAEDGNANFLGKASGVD
From the text: Hoenicka, E. M. Becker, H. Apeler, T. Sirichoke, H. Schroeder, R. Gerzer and J.-P. Stasch, “Purified soluble guanylyl cyclase expressed in a baculovirus/Sf9 system: Stimulation by YC-1, nitric oxide, and carbon oxide”, J. Mol. Med. 77 (1999), 14-23. The heme-free guanylate cyclase is obtained by adding Tween 20 to the sample buffer (0.5% in the final concentration).
The activation of sGC by a test substance is reported as n-fold stimulation of the basal activity.

saphenous artery rings = experiment: Vasorelaxant effect in vitro (phenylephrine-contracted artery rings); format: cell-based, Rabbits; conditions: rabbit saphenous artery rings, contraction induced by phenylephrine
Description: Rabbits are anesthetized and sacrificed by intravenous injection of thiopental sodium (about 50 mg/kg) and exsanguinated. The saphenous artery is removed and divided into rings 3 mm wide. The rings are mounted singly on in each case a pair of triangular hooks open at the end and made of 0.3 mm-thick special wire (Remanium®). Each ring is placed under an initial tension in 5 ml organ baths with Krebs-Henseleit solution which is at 37° C., is gassed with 95% O2/5% CO2 and has the following composition: NaCl 119 mM; KCl 4.8 mM; CaCl2×2H2O 1 mM; MgSO4×7H2O 1.4 mM; KH2PO4 1.2 mM; NaHCO3 25 mM; glucose 10 mM; bovine serum albumin 0.001%. The force of contraction is detected with Statham UC2 cells, amplified and digitized via A/D converters (DAS-1802 HC, Keithley Instruments, Munich) and recorded in parallel on chart recorders. Contractions are induced by addition of phenylephrine.
After several (generally 4) control cycles, the substance to be investigated is added in each further run in increasing dosage, and the height of the contraction achieved under the influence of the test substance is compared with the height of the contraction reached in the last preceding run. The concentration necessary to reduce the contraction reached in the preceding control by 50% is calculated from this (IC50). The standard application volume is 5 μl. The proportion of DMSO in the bath solution corresponds to 0.1%.

## CC(C)(C)c1ccc(COc2ccccc2/C=C/C(CCc2ccc(-c3nnn[nH]3)cc2)Cc2ccc(C(=O)O)cc2)cc1 (single isomer, unassigned) [Example 6, 4-((3E)-4-{2-[(4-tert-Butylbenzyl)oxy]phenyl}-2-{2-[4-(1H-tetrazol-5-yl)phenyl]ethyl}but-3-en-1-yl)benzoic acid]
[1]; 0.001 μM Example 6
  Stimulation (n-fold) Heme-containing sGC Basal: 1.9 n-fold
[1]; 0.001 μM Example 6 + 0.1 μM DEA/NO
  Stimulation (n-fold) Heme-containing sGC +0.1 μM DEA/NO: 62.0 n-fold
[1]; 0.001 μM Example 6 + 10 μM ODQ
  Stimulation (n-fold) Heme-containing sGC +10 μM ODQ: 4.8 n-fold
[1]; 0.01 μM Example 6
  Stimulation (n-fold) Heme-containing sGC Basal: 5.1 n-fold
[1]; 0.01 μM Example 6 + 0.1 μM DEA/NO
  Stimulation (n-fold) Heme-containing sGC +0.1 μM DEA/NO: 66.0 n-fold
[1]; 0.01 μM Example 6 + 10 μM ODQ
  Stimulation (n-fold) Heme-containing sGC +10 μM ODQ: 25.7 n-fold
[1]; 0.1 μM Example 6
  Stimulation (n-fold) Heme-containing sGC Basal: 20.2 n-fold
[1]; 0.1 μM Example 6 + 0.1 μM DEA/NO
  Stimulation (n-fold) Heme-containing sGC +0.1 μM DEA/NO: 80.0 n-fold
[1]; 0.1 μM Example 6 + 10 μM ODQ
  Stimulation (n-fold) Heme-containing sGC +10 μM ODQ: 102.7 n-fold
[1]; 1 μM Example 6
  Stimulation (n-fold) Heme-containing sGC Basal: 29.5 n-fold
[1]; 1 μM Example 6 + 0.1 μM DEA/NO
  Stimulation (n-fold) Heme-containing sGC +0.1 μM DEA/NO: 96.2 n-fold
[1]; 1 μM Example 6 + 10 μM ODQ
  Stimulation (n-fold) Heme-containing sGC +10 μM ODQ: 125.8 n-fold
[1]; 10 μM Example 6
  Stimulation (n-fold) Heme-containing sGC Basal: 42.1 n-fold
[1]; 10 μM Example 6 + 0.1 μM DEA/NO
  Stimulation (n-fold) Heme-containing sGC +0.1 μM DEA/NO: 99.9 n-fold
[1]; 10 μM Example 6 + 10 μM ODQ
  Stimulation (n-fold) Heme-containing sGC +10 μM ODQ: 135.0 n-fold
[1]; combination of Example 6 and DEA/NO
  Effect of combination with the NO donor DEA/NO on sGC stimulation: no synergistic effect
[1]; with ODQ, effect in fact increased
  Effect of the heme-dependent sGC inhibitor ODQ on sGC activation: not blocked
Saphenous artery rings
  IC50: 119 nM
